According to patent publication US12595230B2, “Substituted 6,7-dihydro-5H-benzo[7]annulene compounds and their derivatives, processes for their preparation and therapeutic uses thereof” (Sanofi, priority 2020, dated 2026):
pIC50: −log10 of the molar value.

Target: T1, ERα (Homo sapiens, UniProt P03372)
T1 construct: host or cells: MCF7
T1 sequence (P03372 1-595): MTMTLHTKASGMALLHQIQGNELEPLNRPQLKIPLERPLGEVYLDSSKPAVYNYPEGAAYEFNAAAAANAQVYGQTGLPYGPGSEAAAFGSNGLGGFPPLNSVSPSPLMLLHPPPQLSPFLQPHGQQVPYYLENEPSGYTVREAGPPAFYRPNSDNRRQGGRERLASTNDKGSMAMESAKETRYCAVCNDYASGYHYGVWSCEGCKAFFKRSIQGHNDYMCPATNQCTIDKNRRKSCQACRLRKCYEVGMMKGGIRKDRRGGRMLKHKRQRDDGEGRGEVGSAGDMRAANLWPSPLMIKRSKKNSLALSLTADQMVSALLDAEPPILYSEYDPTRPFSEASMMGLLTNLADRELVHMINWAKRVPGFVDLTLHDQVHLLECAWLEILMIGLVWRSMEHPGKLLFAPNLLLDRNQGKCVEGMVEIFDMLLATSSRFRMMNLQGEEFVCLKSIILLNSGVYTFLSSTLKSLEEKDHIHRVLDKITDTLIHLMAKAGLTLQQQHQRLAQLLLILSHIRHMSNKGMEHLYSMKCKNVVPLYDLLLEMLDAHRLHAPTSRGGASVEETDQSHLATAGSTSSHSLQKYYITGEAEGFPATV
Assay: Estrogen receptor degradation activity: breast cancer cell ERα in cell western assay (MCF7 cells)
Format: cell-based
Settings: for % Degradation At 0.3 μM: 4 hours, relative to fulvestrant 0.1 μM positive control; for DC50 / pIC50: 4 hours post compound addition, concentration which degrades 50% of the estrogen receptor; for DC50: read-out: Degradation IC50
Procedure, shortened: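 Compounds were applied to MCF7 cells in stripped-serum, phenol red-free medium for 4 h at final 0.3–0.0000018 μM, with fulvestrant (0.1 μM) as control. Value: IC50 (nM) for 50% ERα degradation.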

Row | Compound | % Degradation At 0.3 μM | DC50 | pIC50
1 | Cc1ccc(C2=C(c3ccc(CC4CN(CCCF)C4)cc3)c3ccc(C(=O)O)cc3CCC2)c(F)c1.Cl [Example 11, 8-(2-fluoro-4-methylphenyl)-9-(4-((1-(3-fluoropropyl)azetidin-3-yl)methyl)phenyl)-6,7-dihydro-5H-benzo[7]annulene-3-carboxylic acid] | 91% | 0.4 nM | –
2 | O=C(O)c1ccc2c(c1)CCCC(c1ncc(Cl)cc1C(F)(F)F)=C2c1ccc(CC2CN(CCCF)C2)cc1 [Example 218, 8-(5-chloro-3-(trifluoromethyl)pyridin-2-yl)-9-(4-((1-(3-fluoropropyl)azetidin-3-yl)methyl)phenyl)-6,7-dihydro-5H-benzo[7]annulene-3-carboxylic acid] | 92% | 0.5 nM | –
3 | Cl.[2H]C([2H])(CCF)N1CC(Cc2ccc(C3=C(c4ccc(Cl)cc4Cl)CCCc4cc(C(=O)O)ccc43)cc2)C1 [Example 208, 8-(2,4-dichlorophenyl)-9-(4-((1-(3-fluoropropyl-1,1-d2)azetidin-3-yl)methyl)phenyl)-6,7-dihydro-5H-benzo[7]annulene-3-carboxylic acid hydrochloride] | 95% | 0.2 nM | –
4 | O=C(O)c1ccc2c(c1)CCCC(c1cccc(F)c1C(F)(F)F)=C2c1ccc(CC2CN(CCCF)C2)cc1 [Example 232, 8-(3-fluoro-2-(trifluoromethyl)phenyl)-9-(4-((1-(3-fluoropropyl)azetidin-3-yl)methyl)phenyl)-6,7-dihydro-5H-benzo[7]annulene-3-carboxylic acid] | 88% | – | 10.00
5 | Cc1c(C2=C(c3ccc(CC4CN(CCCF)C4)cc3)c3ccc(C(=O)O)cc3CCC2C)cccc1C(F)(F)F (racemic) [Example 310, 9-(4-((1-(3-fluoropropyl)azetidin-3-yl)methyl)phenyl)-7-methyl-8-(2-methyl-3-(trifluoromethyl)phenyl)-6,7-dihydro-5H-benzo[7]annulene-3-carboxylic acid] | 85% | 0.4 nM | –
6 | Cc1c(Cl)cccc1C1=C(c2ccc(CC3CN(CCCF)C3)cc2)c2ccc(C(=O)O)cc2CCC1.Cl [Example 212, 8-(3-chloro-2-methylphenyl)-9-(4-((1-(3-fluoropropyl)azetidin-3-yl)methyl)phenyl)-6,7-dihydro-5H-benzo[7]annulene-3-carboxylic acid hydrochloride] | 87% | – | 10.00
7 | O=C(O)c1ccc2c(c1)CCCC(c1ccc(Cl)cc1Cl)=C2c1ccc(CC2CN(CCCF)C2)c(F)c1 [Example 239, 8-(2,4-dichlorophenyl)-9-(3-fluoro-4-((1-(3-fluoropropyl)azetidin-3-yl)methyl)phenyl)-6,7-dihydro-5H-benzo[7]annulene-3-carboxylic acid] | 93% | 0.4 nM | –
8 | CC1CCc2cc(C(=O)O)ccc2C(c2ccc(CC3CN(CCCF)C3)cc2)=C1c1ccc(Cl)cc1Cl (single isomer, unassigned) [Example 302, 8-(2,4-dichlorophenyl)-9-(4-((1-(3-fluoropropyl)azetidin-3-yl)methyl)phenyl)-7-methyl-6,7-dihydro-5H-benzo[7]annulene-3-carboxylic acid] | 90% | 0.6 nM | –
9 | O=C(O)c1ccc2c(c1)CCCC(c1cccc(C(F)(F)F)c1Cl)=C2c1ccc(CC2CN(CCC(F)F)C2)cc1 [Example 286, 8-(2-chloro-3-(trifluoromethyl)phenyl)-9-(4-((1-(3,3-difluoropropyl)azetidin-3-yl)methyl)phenyl)-6,7-dihydro-5H-benzo[7]annulene-3-carboxylic acid] | 88% | 0.3 nM | –
10 | O=C(O)c1ccc2c(c1)CCC(C1CC1)C(c1ccc(Cl)cc1)=C2c1ccc(CC2CN(CCCF)C2)cc1 (racemic) [Example 324, 8-(4-chlorophenyl)-7-cyclopropyl-9-(4-((1-(3-fluoropropyl)azetidin-3-yl)methyl)phenyl)-6,7-dihydro-5H-benzo[7]annulene-3-carboxylic acid] | 86% | 0.8 nM | –
11 | COc1c(C(=O)O)ccc2c1CCCC(c1ccc(Cl)cc1Cl)=C2c1ccc(CC2CN(CCCF)C2)cc1 [Example 271, 8-(2,4-dichlorophenyl)-9-(4-((1-(3-fluoropropyl)azetidin-3-yl)methyl)phenyl)-4-methoxy-6,7-dihydro-5H-benzo[7]annulene-3-carboxylic acid] | 83% | 16.2 nM | –
12 | O=C(O)c1ccc2c(c1)CCCC(c1ccc(Cl)cc1C(F)(F)F)=C2c1ccc(CC2(F)CN(CCCF)C2)cc1 [Example 237, 8-(4-chloro-2-(trifluoromethyl)phenyl)-9-(4-((3-fluoro-1-(3-fluoropropyl)azetidin-3-yl)methyl)phenyl)-6,7-dihydro-5H-benzo[7]annulene-3-carboxylic acid] | 88% | 5.8 nM | –
13 | COc1c(C(=O)O)ccc2c1CCCC(c1ccc(F)cc1C(F)(F)F)=C2c1ccc(CC2CN(CCCF)C2)cc1.Cl [Example 283, 8-(4-fluoro-2-(trifluoromethyl)phenyl)-9-(4-((1-(3-fluoropropyl)azetidin-3-yl)methyl)phenyl)-4-methoxy-6,7-dihydro-5H-benzo[7]annulene-3-carboxylic acid hydrochloride] | 90% | 93.3 nM | –
14 | O=C(O)c1ccc2c(c1)CCCC(c1ncc(Cl)cc1Cl)=C2c1ccc(CC2CN(CCCF)C2)cc1 [Example 234, 8-(3,5-dichloropyridin-2-yl)-9-(4-((1-(3-fluoropropyl)azetidin-3-yl)methyl)phenyl)-6,7-dihydro-5H-benzo[7]annulene-3-carboxylic acid] | 84% | 1.3 nM | –
15 | O=C(O)c1ccc2c(c1)SCC(c1ccc(Cl)cc1Cl)=C2c1ccc(CC2CN(CCCF)C2)cc1 [Example 308, 3-(2,4-dichlorophenyl)-4-(4-((1-(3-fluoropropyl)azetidin-3-yl)methyl)phenyl)-2H-thiochromene-7-carboxylic acid] | 94% | 1.4 nM | –
16 | CCC(CC)CC1=C(c2ccc(CC3CN(CCCF)C3)cc2)c2ccc(C(=O)O)cc2CCC1 [Example 231, 8-(2-Ethylbutyl)-9-(4-((1-(3-fluoropropyl)azetidin-3-yl)methyl)phenyl)-6,7-dihydro-5H-benzo[7]annulene-3-carboxylic Acid] | 83% | 0.3 nM | –
17 | O=C(O)c1ccc2c(c1)CCCC(c1ccccc1Cl)=C2c1ccc(CC2CN(CCCF)C2)cn1 [Example 252, 8-(2-chlorophenyl)-9-(5-((1-(3-fluoropropyl)azetidin-3-yl)methyl)pyridin-2-yl)-6,7-dihydro-5H-benzo[7]annulene-3-carboxylic Acid] | 67% | 48.6 nM | –
18 | Cl.O=C(O)c1ccc2c(c1)CCCC(c1ccc(Cl)c(Cl)c1)=C2c1ccc(CC2CN(CCCF)C2)cc1 [Example 207, 8-(3,4-dichlorophenyl)-9-(4-((1-(3-fluoropropyl)azetidin-3-yl)methyl)phenyl)-6,7-dihydro-5H-benzo[7]annulene-3-carboxylic acid hydrochloride] | 92% | 1.1 nM | –
19 | CC1CCc2cc(C(=O)O)ccc2C(c2ccc(CC3CN(CCCF)C3)cc2)=C1c1ccc(Cl)cc1 (single isomer, unassigned) [Example 328, 18-(4-chlorophenyl)-9-(4-((1-(3-fluoropropyl)azetidin-3-yl)methyl)phenyl)-7-methyl-6,7-dihydro-5H-benzo[7]annulene-3-carboxylic acid] | 88% | 0.4 nM | –
20 | COc1ccc(C2=C(c3ccc(CC4CN(CCCF)C4)cc3)c3ccc(C(=O)O)cc3CCC2)c(F)c1 [Example 16, 8-(2-fluoro-4-methoxyphenyl)-9-(4-((1-(3-fluoropropyl)azetidin-3-yl)methyl)phenyl)-6,7-dihydro-5H-benzo[7]annulene-3-carboxylic acid] | 94% | 0.4 nM | –
21 | Cc1cccc(C2=C(c3ccc(CC4CN(CCCF)C4)cc3)c3ccc(C(=O)O)cc3CCC2)c1Cl [Example 30, 8-(2-chloro-3-methylphenyl)-9-(4-((1-(3-fluoropropyl)azetidin-3-yl)methyl)phenyl)-6,7-dihydro-5H-benzo[7]annulene-3-carboxylic acid] | 94% | 0.4 nM | –
22 | COC(c1ccc(C2=C(c3ccc(Cl)cc3Cl)CCCc3cc(C(=O)O)ccc32)cc1)C1CN(CCCF)C1 (single isomer, unassigned; isomer 2) [Example 228, 8-(2,4-dichlorophenyl)-9-(4-((1-(3-fluoropropyl)azetidin-3-yl)(methoxy)methyl)phenyl)-6,7-dihydro-5H-benzo[7]annulene-3-carboxylic Acid Isomer 2] | 76% | 0.6 nM | –
